Measured values: ChEMBL document CHEMBL5058564, “EUbOPEN Chemogenomics Library 2 (Incucyte)” (2022)

What was measured:
Format in all cases: toxicity, cell-based
HEK-293T = assay: Incucyte cell viability with HEK293T; conditions: human, 10 µM, compound concentration 10 uM
Fibroblast = assay: Incucyte cell viability with human fibroblast; conditions: 10 µM, compound concentration 10 uM
U2OS = assay: Incucyte cell viability with U2OS; conditions: human, 10 µM, compound concentration 10 uM
[1] = 6 h, replicate number 1, timepoint 6 hours
[2] = 6 h, replicate number 2, timepoint 6 hours
[3] = 12 h, replicate number 1, timepoint 12 hours
[4] = 12 h, replicate number 2, timepoint 12 hours
[5] = 18 h, replicate number 1, timepoint 18 hours
[6] = 24 h, replicate number 1, timepoint 24 hours
[7] = 24 h, replicate number 2, timepoint 24 hours
[8] = 18 h, replicate number 2, timepoint 18 hours
[9] = 0 h, replicate number 1, timepoint 0 hours
[10] = 0 h, replicate number 2, timepoint 0 hours
Note: unitless GR value; below 1 slowed growth and below 0 cell loss.

Row | SMILES | Growth Rate (HEK-293T; [1]) | Growth Rate (HEK-293T; [2]) | Growth Rate (HEK-293T; [3]) | Growth Rate (HEK-293T; [4]) | Growth Rate (HEK-293T; [5]) | Growth Rate (HEK-293T; [6]) | Growth Rate (HEK-293T; [7]) | Growth Rate (Fibroblast; [1]) | Growth Rate (Fibroblast; [3]) | Growth Rate (Fibroblast; [5]) | Growth Rate (Fibroblast; [6]) | Growth Rate (U2OS; [9]) | Growth Rate (U2OS; [4]) | Growth Rate (U2OS; [5]) | Growth Rate (U2OS; [8]) | Growth Rate (U2OS; [7]) | Growth Rate (HEK-293T; [10]) | Growth Rate (Fibroblast; [10]) | Growth Rate (U2OS; [10]) | Growth Rate (HEK-293T; [8]) | also measured
1 | CC(C)(C)c1ccc(-c2coc3ccc(-c4cn[nH]c4)nc23)cc1 | 0.36 | 0.2 | 0.44 | 0.39 | 0.66 | 0.67 | 0.62 | -0.89 | -0.7 | -0.62 | -0.48 | 0.4 | 0.79 | 0.76 | 0.53 | 0.43 | – | – | – | – | Growth Rate (Fibroblast; [2]): -0.35; Growth Rate (Fibroblast; [4]): 0; Growth Rate (Fibroblast; [8]): 0.05; Growth Rate (Fibroblast; [7]): 0.09; Growth Rate (U2OS; [6]): 0.69
2 | Cc1nccc(COC(=O)N2C[C@@H]3[C@@H](CNC(=O)c4ccc5[nH]nnc5c4)[C@@H]3C2)n1 [BI 3017] | – | – | – | 0.9 | – | – | – | 0.04 | 0.1 | 0.53 | 0.68 | 0.07 | 0.9 | 0.68 | 0.98 | – | 0.34 | 0.77 | 0.45 | – | Growth Rate (HEK-293T; [9]): 0.67; Growth Rate (Fibroblast; [9]): 0.35; Growth Rate (U2OS; [1]): 0.79; Growth Rate (U2OS; [3]): 0.75; Growth Rate (U2OS; [6]): 0.71
3 | Cl.NCCc1c[nH]c2ccc(O)cc12 [SEROTONIN HYDROCHLORIDE] | – | – | – | – | – | – | – | – | – | – | – | 0.29 | 0.97 | 0.67 | – | – | 0.43 | 0.19 | 0.12 | – | Growth Rate (HEK-293T; [9]): 0.58; Growth Rate (Fibroblast; [4]): 1; Growth Rate (U2OS; [1]): 0.46; Growth Rate (U2OS; [2]): 0.79; Growth Rate (U2OS; [3]): 0.38; Growth Rate (U2OS; [6]): 0.62
4 | C[C@H](CCC(=O)O)[C@H]1CC[C@H]2[C@@H]3CC[C@@H]4C[C@H](O)CC[C@]4(C)[C@H]3CC[C@]12C [LITHOCHOLIC ACID] | 0.39 | – | 0.56 | 0.96 | 0.75 | 0.76 | 0.86 | 0.65 | 0.42 | 0.36 | 0.22 | 0.9 | 0.77 | 0.78 | 0.79 | 0.75 | 0.75 | 0.62 | 0.03 | – | Growth Rate (HEK-293T; [9]): 0.8; Growth Rate (Fibroblast; [4]): 0.98; Growth Rate (Fibroblast; [8]): 0.98; Growth Rate (Fibroblast; [7]): 0.78; Growth Rate (U2OS; [2]): 0.51; Growth Rate (U2OS; [3]): 0.79; Growth Rate (U2OS; [6]): 0.96
5 | Cc1c(C(=O)Nc2ccc(N3C[C@@H](C)O[C@@H](C)C3)nc2)cccc1-c1ccc(OC(F)(F)F)cc1 [SONIDEGIB] | 0.25 | -0.63 | -0.06 | -0.54 | 0 | 0.05 | -0.3 | 0.45 | 0.42 | 0.13 | 0.36 | -0.44 | – | – | – | 0.97 | -0.95 | 0.63 | -1 | -0.39 | Growth Rate (Fibroblast; [9]): 0.97
6 | CN1[C@@H]2CC[C@H]1C[C@@H](OC(=O)C(CO)c1ccccc1)C2 (some centres not stated) [ATROPINE] | 0.9 | 0.19 | 0.68 | 0.53 | 0.6 | 0.44 | 0.6 | – | – | – | – | – | 0.96 | – | 0.95 | – | – | -0.32 | – | 0.65 | Growth Rate (Fibroblast; [9]): -0.04; Growth Rate (Fibroblast; [8]): 0.91; Growth Rate (U2OS; [1]): 0.86; Growth Rate (U2OS; [3]): 0.79
7 | CC(C)(C)c1ccc(S(=O)(=O)Nc2ccc(Cl)cc2C(=O)c2cc[n+]([O-])cc2)cc1 [VERCIRNON] | 0.87 | 0.35 | – | 0.73 | – | – | – | – | – | 1 | 0.69 | – | – | 0.78 | – | – | – | 0.25 | -1 | 0.91 | Growth Rate (Fibroblast; [9]): 0.29; Growth Rate (U2OS; [1]): 0.94
8 | Cc1cc(Cn2nnc3c(-c4ccco4)nc(N)nc32)ccc1N [VIPADENANT] | – | 0.84 | – | 0.95 | – | – | – | 0.45 | 0.08 | 0.23 | 0.17 | – | – | 0.79 | – | – | 0.5 | 0.35 | -1 | – | Growth Rate (HEK-293T; [9]): 0.37; Growth Rate (Fibroblast; [9]): 0.03; Growth Rate (Fibroblast; [8]): 0.81
9 | CNc1nc(NCc2ncccn2)c2c(-c3ccc4ncccc4c3)c[nH]c2n1 | 0.37 | 0.12 | -0.16 | -0.1 | -0.23 | -0.25 | – | – | 0.36 | -0.14 | 0.06 | 0.67 | 0.95 | 0.27 | 0.56 | 0.42 | 0.76 | 0.3 | – | -0.28 | Growth Rate (HEK-293T; [9]): 0.21; Growth Rate (Fibroblast; [9]): 0.14; Growth Rate (U2OS; [6]): 0.4
10 | CCC(=O)NC[C@@H]1C[C@H]1c1cccc2c1CCO2 [TASIMELTEON] | 0.74 | – | – | – | 0.92 | 0.79 | 0.99 | 0.35 | 0.48 | 0.69 | 0.48 | -0.37 | 0.81 | – | 0.96 | 0.96 | 0.1 | 0.97 | -0.06 | 0.94 | Growth Rate (HEK-293T; [9]): 0.74; Growth Rate (Fibroblast; [2]): 0.26; Growth Rate (Fibroblast; [4]): 0.49; Growth Rate (Fibroblast; [8]): 0.76; Growth Rate (Fibroblast; [7]): 0.82; Growth Rate (U2OS; [1]): 0.85; Growth Rate (U2OS; [2]): 0.51; Growth Rate (U2OS; [3]): 0.97
11 | CC(C)n1cnc2c(Nc3cccc(Cl)c3)nc(N[C@H]3CCCC[C@@H]3N)nc21 | -0.84 | -0.89 | -0.51 | -0.69 | -0.35 | -0.25 | -0.39 | 0.31 | 0.73 | 0.33 | 0.41 | – | 0.04 | 0.03 | -0.02 | 0.05 | – | – | – | -0.48 | Growth Rate (Fibroblast; [2]): -0.31; Growth Rate (Fibroblast; [4]): 0.36; Growth Rate (U2OS; [1]): -0.04; Growth Rate (U2OS; [2]): 0.4; Growth Rate (U2OS; [3]): -0.12; Growth Rate (U2OS; [6]): 0.06
12 | Cc1nc(C#Cc2cccnc2)cs1.Cl | 0.68 | – | 0.63 | 0.87 | 0.84 | 0.76 | 0.73 | 0.49 | 0.32 | 0.37 | 0.25 | 0 | 0.84 | 0.97 | – | – | 0.23 | 0.91 | 0.3 | 0.94 | Growth Rate (HEK-293T; [9]): 0.27; Growth Rate (Fibroblast; [2]): 0.58; Growth Rate (U2OS; [2]): 0.72
13 | CC(C)Oc1ccc(F)c(-c2cnc(N)c(C(=O)Nc3cnccc3N3CCC[C@@H](C(=O)O)C3)n2)c1 | 0.66 | 0.25 | 0.11 | 0.14 | 0.21 | 0.25 | 0.33 | – | – | – | – | – | – | – | 0.84 | 0.73 | 0.07 | 0.06 | -1 | 0.13 | Growth Rate (HEK-293T; [9]): 0.29; Growth Rate (Fibroblast; [9]): -0.81
14 | O=c1c2cccn2c2ccccc2n1CCCN1CCC(c2ccc(Cl)cc2)CC1 | – | 0.34 | 0.61 | 0.39 | 0.56 | 0.76 | 0.9 | -0.55 | -0.52 | -0.55 | -0.3 | – | 0.89 | – | 0.89 | 0.8 | – | – | -1 | 0.55 | Growth Rate (Fibroblast; [2]): -0.88; Growth Rate (Fibroblast; [4]): -0.58; Growth Rate (Fibroblast; [8]): -0.28; Growth Rate (Fibroblast; [7]): -0.26
